Values after ≈ are worked out from the molar mass of the structure shown. Like-named read-outs stand apart in the source and are kept apart here.
Assays:
S. aureus [1] = assay: microbroth dilution assay (MIC, resazurin); format: cell-based, Staphylococcus aureus; conditions: 18 h, 37 °C; for MIC: Staphylococcus aureus
Experimental: (§1) The antibacterial efficacy of the chosen compounds was assessed through the microbroth dilution assay conducted in 96-well culture plates.[21] A stock solution with a concentration of 20 mg/mL was prepared in dimethyl sulfoxide (DMSO). Subsequently, autoclaved nutrient broth (100 μL) was introduced into the culture plate wells, with the initial row of the microtiter plate receiving 100 μL of the test material. 2-fold serial dilutions of the test compounds were then meticulously executed. To serve as an indicator, 20 μL of 2× resazurin solution was added to each well. Finally, 10 μL of the bacterial suspension was incorporated into each well, yielding a final concentration of 5 × 10^6 CFU/mL. The experiment was conducted in duplicate, and the plates were incubated at 37 °C. After 18 h, the plates were scrutinized for any change in color indicative of bacterial growth.

P. aeruginosa [2] = assay: microbroth dilution assay (MIC, resazurin); format: cell-based, Pseudomonas aeruginosa; conditions: 18 h, 37 °C; for MIC: Pseudomonas aeruginosa
Experimental: as §1

S. aureus ATCC 2793 = assay: agar well diffusion, zone of inhibition; format: cell-based, Staphylococcus aureus; conditions: for Diameter of zone inhibition on SA: Supplement S4, antibiotic standards; for inhibition zone diameter S. aureus: concentration (μg): 20 for 1-3, 10 for ampicillin and tobramycin, 30 for tetracycline
Experimental: (§2) The susceptibility test was measured in vitro by employing the agar well diffusion method.[20]S. aureus ATCC 2793 and P. aeruginosa ATCC 27853 strains were used in this experiment. A suspension of the test organism was prepared in nutrient broth by overnight culture for 24 h at 37 °C and 7.0 pH. The agar plate surface was inoculated by spreading a volume of the microbial inoculum over the entire agar surface. Then, a hole with a diameter of 6 to 8 mm was punched aseptically with a sterile tip, and a volume (20 μL) of the tested solution at the desired concentration was introduced into the well. Then, agar plates were incubated under suitable conditions depending upon the test microorganism. After incubation, the plates were examined and the diameters of the zone of complete inhibition were observed.

MRSA = assay: agar well diffusion, zone of inhibition; format: cell-based, Staphylococcus aureus; conditions: for Diameter of zone inhibition on MRSA: Supplement S4, antibiotic standards; for inhibition zone diameter MRSA: concentration (μg): 20 for 1-3, 10 for ampicillin and tobramycin, 30 for tetracycline
Experimental: Staphylococcus aureus ATCC 2793, Pseudomonas aeruginosa ATCC 27853, and P. aeruginosa PA14 were activated, cultured, and stored in a refrigerator at −25 °C in the Laboratory of Biotechnology, Faculty of Chemical, Da Nang University of Science and Technology, The University of Da Nang. The MRSA antibiotic-resistant strain was isolated, identified,[17] and kindly provided by Dr. Ngo Thai Bich Van, Faculty of Chemical, Da Nang University of Science and Technology, The University of Da Nang.
as §2

P. aeruginosa ATCC 27853 [3] = assay: agar well diffusion, zone of inhibition; format: cell-based, Pseudomonas aeruginosa; conditions: for Diameter of zone inhibition on PA: Supplement S4, antibiotic standards; for inhibition zone diameter P. aeruginosa: concentration (μg): 20 for 1-3, 10 for ampicillin and tobramycin, 30 for tetracycline
Experimental: as §2

[4] = system: pyocyanin production in the PA14 strain; assay: pyocyanin inhibition assay (chloroform extraction); format: cell-based, Pseudomonas aeruginosa; conditions: half of the MIC, 12 h, mean ± SD, n = 3
Experimental: Following the specified incubation period, the cultures underwent centrifugation at 10,000 rpm for 10 min, leading to the collection of the supernatant. Subsequently, 3 mL of chloroform was added to 5 mL of the supernatant, and the mixture was vortexed for 20 s. After centrifugation at 5000 rpm for 10 min, the resulting blue layer at the bottom was transferred to a new tube. To each tube, 2 mL of 0.2 M HCl was added and vortexed for 20 s. The sample underwent subsequent centrifugation for 2 min at 5000 rpm, and 1 mL of the resulting pink layer was transferred to cuvettes. A blank was established using 0.2 M HCl. Spectrophotometric measurements were carried out at 520 nm.

P. aeruginosa ATCC 27853 [5] = assay: biofilm formation inhibition, crystal violet assay; format: cell-based, Pseudomonas aeruginosa; conditions: mean ± SD, n = 3
Experimental: Biofilm formation was evaluated utilizing the crystal violet assay.[22] The P. aeruginosa ATCC 27853 strain was used in this experiment. The bacterial attachment was initiated by inoculating the culture medium with approximately 10^7 CFU/mL in polystyrene 96-well plates, followed by incubation at 37 °C for 2 h in aerobic conditions. Subsequent to the attachment phase, the medium was carefully aspirated, and the 96-well plates were rinsed with phosphate-buffered saline (PBS) (pH 7.0) to eliminate unattached cells. The fresh medium, along with tested compounds, was then introduced to assess the inhibitory impact on biofilm formation. Following an 18 h incubation at 37 °C, a crystal violet (CV) assay was conducted. The well plate was washed with PBS to eliminate unattached cells, and a 1% CV solution was added, allowing for a 30 min incubation at room temperature. After this period, the well plate underwent three PBS washes, and absolute ethanol was added, incubating for 15 min. Following the transfer of the stained solution to a new well plate, the absorbance was measured at 595 nm.

HEK-293 cells = assay: AlamarBlue cell viability assay; format: cell-based; conditions: Homo sapiens, HEK293, 24 h exposure
Experimental: HEK-293 cells were cultured in DMEM containing 25 mM glucose, 10% heat-inactivated fetal bovine serum (FBS), 100 U/mL penicillin, and 100 μg/mL streptomycin. Cells were incubated at 37 °C in a humidified atmosphere containing 95% air and 5% CO2.
[…] Untreated groups were set as the control (100% cell viability). On the 24th, cells were treated with the Invitrogen AlamarBlue cell viability reagent for an additional 2 h. Optical density (OD) values (at wavelengths of 570 and 600 nm) were then recorded. The percentage of cell viability was calculated according to the protocol provided by the manufacturer.

P. aeruginosa ATCC 27853 [6] = assay: swarming motility; format: cell-based, Pseudomonas aeruginosa; conditions: 24 h at 37 °C; for migration distance (mm): swarming, control 100 mm
Experimental: The analysis was performed in Petri dishes with the LB minimal medium supplemented with 0.2% glucose and 0.5% agar, as described by Kearns.[24] Tested compounds were added to the motility agar at the desired concentration. Aliquots (1.0 μL) were taken from P. aeruginosa ATCC 27853 overnight cultures and spotted in the center of each well, and the migration zones were measured after 24 h of incubation at 37 °C. The inhibition rate was calculated as follows: [drawing 1] where Dtreated and Dcontrol are the migration distances in the treated and control samples, respectively.

P. aeruginosa [7] = system: P. aeruginosa; design: method as in Liu et al.[7]; conditions: bromo benzenediol derivatives; ref Liu et al.[7]; cited from earlier work
S. aureus [8] = system: S. aureus; design: method as in Liu et al.[7]; conditions: bromo benzenediol derivatives; ref Liu et al.[7]; cited from earlier work
[9] = system: Staphylcoccus epidermidis; design: method as in Liu et al.[7]; conditions: ref Liu et al.[7]; cited from earlier work

Row | MIC S. aureus (S. aureus [1]) [µg/mL] | MIC P. aeruginosa (P. aeruginosa [2]) | SMILES | MIC (S. aureus [1]) [µg/mL] | Diameter of zone inhibition on SA (S. aureus ATCC 2793) [mm] | inhibition zone diameter S. aureus (S. aureus ATCC 2793) [mm] | Diameter of zone inhibition on MRSA (MRSA) [mm] | inhibition zone diameter MRSA (MRSA) [mm] | Diameter of zone inhibition on PA (P. aeruginosa ATCC 27853 [3]) [mm] | inhibition zone diameter P. aeruginosa (P. aeruginosa ATCC 27853 [3]) | pyocyanin production inhibition (%) [4] [%] | biofilm formation inhibition (%) (P. aeruginosa ATCC 27853 [5]) | IC50 (HEK-293 cells) [µM] | swarming motility inhibition rate (%) (P. aeruginosa ATCC 27853 [6]) | migration distance (mm) (P. aeruginosa ATCC 27853 [6]) | MIC (P. aeruginosa [2]) [µg/mL] | MIC P. aeruginosa (P. aeruginosa [7]) [µg/mL] | MIC S. aureus (S. aureus [8]) [µg/mL] | MIC on Staphylcoccus epidermidis [9] [µg/mL]
1 | 10 (≈ 28.6 µM) | inactive | CC1(C)S[C@@H]2[C@H](NC(=O)[C@H](N)c3ccccc3)C(=O)N2[C@H]1C(=O)O [ampicillin] | 10 (≈ 28.6 µM) | 14.5 | 16 | 15.5 | 18 | 0 | no observable zone diameter |  |  |  |  |  |  |  |  | 
2 |  |  | CC(=O)c1c(O)ccc(Br)c1O [compound 2, 3-Bromo-2,6-dihydroxyacetophenone] | 12 (≈ 51.9 µM) |  | 29 |  | 30 |  | 1 mm | 52 | 14 | 31.1 | 86.5 | 13.5 | 780 (≈ 3380 µM) |  |  | 
3 |  |  | CC(=O)c1cc(Br)c(O)c(Br)c1O [compound 3, 3,5-Dibromo-2,4-dihydroxyacetophenone] | 390 (≈ 1260 µM) |  | 12 |  | 20 |  | 1 mm | 38 | 14 | > 32 | 86.5 | 13.5 | 780 (≈ 2520 µM) |  |  | 
4 |  |  | Oc1cc(Cc2cc(O)c(O)c(Br)c2Br)c(Br)c(Br)c1O [compound 7, 4,4′-methylenebis(5,6-dibromo-1,2-benzenediol)] |  |  |  |  |  |  |  |  |  |  |  |  |  | 140 (≈ 256 µM) | 140 (≈ 256 µM) | 
5 |  |  | Oc1cc(COCc2cc(O)c(O)c(Br)c2Br)c(Br)c(Br)c1O [compound 8, bis(2,3-dibromo-4,5-dihydroxybenzyl)ether] |  |  |  |  |  |  |  |  |  |  |  |  |  | 70 (≈ 121 µM) | 70 (≈ 121 µM) | 35 (≈ 60.6 µM)
6 | 25 (≈ 53.5 µM) | 15 µg/mL (≈ 32.1 µM) | NC[C@H]1O[C@H](O[C@H]2[C@H](O)[C@@H](O[C@H]3O[C@H](CO)[C@@H](O)[C@H](N)[C@H]3O)[C@H](N)C[C@@H]2N)[C@H](N)C[C@@H]1O [tobramycin] | 25 (≈ 53.5 µM) |  | 15 | 5.5 | 12 | 5.5 | 15 mm |  |  |  |  |  | 15 (≈ 32.1 µM) |  |  | 

Row | SMILES | MIC S. aureus (S. aureus [1]) [µg/mL] | MIC P. aeruginosa (P. aeruginosa [2]) | MIC (S. aureus [1]) [µg/mL] | Diameter of zone inhibition on SA (S. aureus ATCC 2793) [mm] | inhibition zone diameter S. aureus (S. aureus ATCC 2793) [mm] | Diameter of zone inhibition on MRSA (MRSA) [mm] | inhibition zone diameter MRSA (MRSA) [mm] | Diameter of zone inhibition on PA (P. aeruginosa ATCC 27853 [3]) [mm] | inhibition zone diameter P. aeruginosa (P. aeruginosa ATCC 27853 [3]) | pyocyanin production inhibition (%) [4] [%] | biofilm formation inhibition (%) (P. aeruginosa ATCC 27853 [5]) | IC50 (HEK-293 cells) [µM] | swarming motility inhibition rate (%) (P. aeruginosa ATCC 27853 [6]) | migration distance (mm) (P. aeruginosa ATCC 27853 [6]) | MIC (P. aeruginosa [2]) [µg/mL] | MIC P. aeruginosa (P. aeruginosa [7]) [µg/mL] | MIC S. aureus (S. aureus [8]) [µg/mL] | MIC on Staphylcoccus epidermidis [9] [µg/mL]
7 | CN(C)[C@@H]1C(O)=C(C(N)=O)C(=O)[C@@]2(O)C(O)=C3C(=O)c4c(O)cccc4[C@@](C)(O)[C@H]3C[C@@H]12 [tetracycline] | 30 (≈ 67.5 µM) | 70 µg/mL (≈ 158 µM) | 30 (≈ 67.5 µM) | 9.75 | 14 | 10.25 | 12 | 10.5 | 10 mm |  |  |  |  |  | 70 (≈ 158 µM) |  |  | 

From publication PMC11447708, “Comprehensive Exploration of Bromophenol Derivatives: Promising Antibacterial Agents against SA and MRSA” (ACS Omega, 2024)
